Source: US20130150399A1, “INHIBITORS OF THE UNFOLDED PROTEIN RESPONSE AND METHODS FOR THEIR USE” (The Board of Trustees of the Leland Stanford Junior …, priority 2006, published 2013)

Legend:
Format in all cases: cell-based, human
XBP1-luciferase reporter = assay: XBP-luciferase reporter high throughput screen / IRE IC50 (tunicamycin + thapsigargin induced); details: Assay IRE IC50; Conc 20 uM
Method: Specifically, HT1080 fibrosarcoma cells stably transfected with the unspliced XBP-1-luciferase reporter construct (3000/well) were plated onto a solid white 384 well microplate with a multidrop dispenser (40 μL per well). The plates were then placed into an automated incubator. After 24 hours of growth, a mixture of tunicamycin (1 μg/ml) and thapsigargin (100 nM) inducers were added, and candidate compounds were then added to the plates. After 24 hours, luciferase reagent (10 μl) was added to each well and the plates were read in a Molecular Devices Analyst GT (0.2 second read per well).
As described above in Example 2, HT1080 fibrosarcoma cells stably expressing the XBP-luciferase reporter were plated in a 384 well microplate (4000 cells/well). After 24 hours, cells were treated with a mixture of tunicamycin (4 μg/ml) and thapsigargin (0.4 μM), followed by the addition of one compound per well (10 μM). We screened a total of 66,000 diverse molecules obtained from Specs, Chembridge and ChemRX. Twenty-four hours post-induction, BriteGlo luciferase substrate (10 μl) was added to each well and the signal intensity determined in a plate reader (0.2 s read per well). […] We retested 431 compounds from the initial screen, and selected 58 compounds for additional analysis, including calculation of IC50 values and inhibition of a CMV-luciferase reporter.
Compounds of the screening library with structural similarity to compound 9389 (see Table 1) have been identified and in some cases further assayed for inhibitory activity. Compounds listed with “IC50” values were assayed secondarily after initially being identified in the high throughput screen. Each value represents a separate calculation of reporter inhibition based upon the high throughput robotic screening platform. The actual IC50 values are calculated and represent an estimate of the potency of each compound. This assay is not considered to be accurate below a concentration of 10 nM. Compounds classified with “mild” activity inhibited the XBP1-luciferase reporter by 10-30%. Compounds classified with “moderate” activity inhibited the XBP1-luciferase reporter by 30-75%. Compounds classified with “potent” activity inhibited the XBP1-luciferase reporter by 75-100%. Compounds classified with “undetected” activity inhibited the XBP1-luciferase reporter by less than 10% under the defined conditions.

HT1080 cells = assay: Clonogenic survival (colony formation) assay, HT1080
Method: Several of the candidate irestatins were tested in a hypoxia clonogenic survival assay. […] HT1080 fibrosarcoma cells stably were treated with 1 uM of the indicated irestatin or left untreated, and incubated in hypoxia (0.01% oxygen) for 48 hrs at 37° C. Cells were harvested and counted, and allowed to form colonies under normal oxygen tension. Survival rate is expressed as the fraction of colonies formed divided by the total number of cells seeded for each condition. For all experiments, cells were plated in triplicate, and all experiments were repeated at least three times. These experiments were repeated using MiaPaCa2 cells in place of the HT1080 fibrosarcoma cells.
For hypoxia survival assays, cells were grown in 60 mm dishes until reaching at 50-70% confluence and shifted to hypoxia (0.1% O2) for 48 hrs. Cells were trypsinized, counted using a hemocytometer, and replated in triplicate at 1,000-20,000 cells per plate in normal culture medium. After 10-12 days of growth under normal oxygen conditions, colonies were stained with 0.2% crystal violet in ethanol and counted. Survival values are expressed as the number of colonies divided by the total number of cells seeded for each condition, normalized to the plating efficiency under normal oxygen conditions. At least three independent experiments were performed.
(§1) A. Effect of irestatin 9389 on PERK and ATF6 pathways. HT1080 cells were treated with vehicle alone (lanes 1-4) or 2.5 μM irestatin 9389 (lanes 5-8) and cultured under aerobic conditions for 18 hours (N) or shifted to hypoxia for the indicated times. Protein lysates were analyzed by Western blot analysis using antisera specific for ATF6 (top), CHOP/GADD153 (middle) or actin (bottom). […] Cells were harvested, counted, and allowed to grow under normal culture conditions for 11-12 days. […] D. Quantification of clonogenic survival assay. […] F. Quantification of TUNEL-positive cells. […] Cells were harvested at the indicated times and counted by hemocytometer. Values represent the mean calculated from triplicate experiments+/−SEM.

CHOP/GADD153 = assay: Western blot of CHOP/GADD153, hypoxic HT1080 cells; details: 2.5 μM; hypoxia for 6-12 hours
Method: Cells (2×10^6) were cultured in 10-cm dishes, collected using a cell scraper at 4° C., and lysed by addition of 150 μl cell lysis buffer [50 mM Tris pH 7.4, 150 mM NaCl, 10% glycerol, 0.5% Triton X-100. 0.5% NP-40, 2 mM Na3VO4, 20 mM beta-glycerophosphate, 10 mM NaF, 1 mM DTT, 1 mM PMSF). Lysates were centrifuged for 5 min at 10,000×g, and proteins (˜40 μg) were resolved by SDS-PAGE followed by semi-dry transfer to nitrocellulose membranes. Membranes were blocked in TBS-5% milk supplemented with 0.1% Tween-20. The blots were then probed overnight with relevant antibodies, washed, and incubated for 2 hours with species-specific secondary antibodies conjugated to horseradish peroxidase. After washing in block solution, immunoreactive material was detected by enhanced chemiluminescence (SuperSignal West Dura Extended, Pierce, Inc., Rockville, Ill.).
as §1, with “HT1080 cells were treated with vehicle alone (lanes 1-4) or 2.5 μM irestatin 9389 (lanes 5-8) and cultured under aerobic conditions for 18 hours (N) or shifted to hypoxia for the indicated times.” left out, “experiments+/−SEM. […]” for “experiments+/−SEM.”

`Cc1csc(NC(=O)CSc2nc3c(c(C(F)(F)F)c2C#N)CCC3)n1` [Compound 9389] was tested, and the “% Inh” value (XBP1-luciferase reporter) was 100.3%, the colony formation (HT1080 cells; 2.5 μM, hypoxia for 48 hours) was “strongly inhibited colony formation” and the “survival of HT1080 cells (colony formation)” value (HT1080 cells; 2.5 μM, normal oxygen conditions) was “negligible effect on the survival”. For the same compound, the “decrease in the rate of colony formation” value (HT1080 cells; exposure during hours 40-48 of hypoxia, data not shown) was 8 fold and the “expression of CHOP/GADD153” value (CHOP/GADD153) was “increased”.
